#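 Five concentrations, 48 hours, 96-well plates. Abbreviation: GI50, concentration required for 50% inhibition of growth. Definition used: TGI = concentration required for complete inhibition of growth.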
# Key:
# Assay in all cases: inhibition of tumour cell growth, NCI panel, 48 h
# SN12C renal = system: SN12C renal
# 786-0 renal = system: 786-0 renal
# SNB-19 CNS = system: SNB-19 CNS
# RXF 393 renal = system: RXF 393 renal
# HT29 colon = system: HT29 colon
# CCRF-CEM leukemia = system: CCRF-CEM leukemia
# SK-OV-3 ovarian = system: SK-OV-3 ovarian
# UACC-62 melanoma = system: UACC-62 melanoma
# MCF7 breast = system: MCF7 breast
# SF-268 CNS = system: SF-268 CNS
# PC-3 prostate = system: PC-3 prostate
# HCT-116 colon = system: HCT-116 colon
# CAKI-1 renal = system: CAKI-1 renal
# MOLT-4 leukemia = system: MOLT-4 leukemia
# HCT-15 colon = system: HCT-15 colon
# NCI/ADR-RES ovarian = system: NCI/ADR-RES ovarian
# EKVX NSCLC = system: EKVX NSCLC
# KM12 colon = system: KM12 colon
# DU-145 prostate = system: DU-145 prostate
# SR leukemia = system: SR leukemia
# NCI-H226 lung = system: NCI-H226 lung
# HOP-62 NSCLC = system: HOP-62 NSCLC
# M14 melanoma = system: M14 melanoma
# RPMI-8226 leukemia = system: RPMI-8226 leukemia
# IGROV1 ovarian = system: IGROV1 ovarian
# SW-620 colon = system: SW-620 colon
# T-47D breast = system: T-47D breast
# SK-MEL-28 melanoma = system: SK-MEL-28 melanoma
# MDA-MB-435 = system: MDA-MB-435
# SF-539 CNS = system: SF-539 CNS
# OVCAR-8 ovarian = system: OVCAR-8 ovarian
# BT-549 breast = system: BT-549 breast
# HS 578T breast = system: HS 578T breast
# A549 NSCLC = system: A549 NSCLC
# K-562 leukemia = system: K-562 leukemia
# UO-31 renal = system: UO-31 renal
# SF-295 CNS = system: SF-295 CNS
# TK-10 renal = system: TK-10 renal
# HL-60(TB) leukemia = system: HL-60(TB) leukemia
# NCI-H522 lung = system: NCI-H522 lung
# SNB-75 CNS = system: SNB-75 CNS
# MDA-MB-231 breast = system: MDA-MB-231 breast
# UACC-257 melanoma = system: UACC-257 melanoma
# COLO 205 colon = system: COLO 205 colon
# OVCAR-4 ovarian = system: OVCAR-4 ovarian
# ACHN renal = system: ACHN renal
# NCI-H460 lung = system: NCI-H460 lung
# HCC-2998 colon = system: HCC-2998 colon
# OVCAR-3 ovarian = system: OVCAR-3 ovarian
# NCI-H23 lung = system: NCI-H23 lung
# SK-MEL-5 melanoma = system: SK-MEL-5 melanoma
# OVCAR-5 ovarian = system: OVCAR-5 ovarian
# LOX IMVI melanoma = system: LOX IMVI melanoma
# SK-MEL-2 melanoma = system: SK-MEL-2 melanoma
# U251 CNS = system: U251 CNS
# A498 renal = system: A498 renal
structure (smiles),measurement,setting,value
COc1ccc(N2C(=O)C3c4[nH]c5ccc(C)cc5c4C4CCC(C(C)(C)C)CC4C3C2=O)cc1 (stereo not drawn),TGI,SN12C renal,> 100 µM
same,TGI,786-0 renal,48.7 µM
same,TGI,SNB-19 CNS,62.6 µM
same,TGI,RXF 393 renal,38.8 µM
same,TGI,HT29 colon,> 100 µM
same,TGI,CCRF-CEM leukemia,16.7 µM
same,TGI,SK-OV-3 ovarian,29.5 µM
same,TGI,UACC-62 melanoma,29.7 µM
same,TGI,MCF7 breast,> 100 µM
same,TGI,SF-268 CNS,64.5 µM
same,TGI,PC-3 prostate,> 100 µM
same,TGI,HCT-116 colon,40.5 µM
same,TGI,CAKI-1 renal,23.7 µM
same,TGI,MOLT-4 leukemia,34.9 µM
same,TGI,HCT-15 colon,> 100 µM
same,TGI,NCI/ADR-RES ovarian,33.2 µM
same,TGI,EKVX NSCLC,> 100 µM
same,TGI,KM12 colon,> 100 µM
same,TGI,DU-145 prostate,> 100 µM
same,TGI,SR leukemia,32.4 µM
same,TGI,NCI-H226 lung,48.9 µM
same,TGI,HOP-62 NSCLC,33.4 µM
same,TGI,M14 melanoma,34.3 µM
same,TGI,RPMI-8226 leukemia,82.1 µM
same,TGI,IGROV1 ovarian,> 100 µM
same,TGI,SW-620 colon,69.8 µM
same,TGI,T-47D breast,> 100 µM
same,TGI,SK-MEL-28 melanoma,33.3 µM
same,TGI,MDA-MB-435,> 100 µM
same,TGI,SF-539 CNS,36.5 µM
same,TGI,OVCAR-8 ovarian,25.1 µM
same,TGI,BT-549 breast,67.9 µM
same,TGI,HS 578T breast,9.89 µM
same,TGI,A549 NSCLC,> 100 µM
same,TGI,K-562 leukemia,41.2 µM
same,TGI,UO-31 renal,40.3 µM
same,TGI,SF-295 CNS,23.3 µM
same,TGI,TK-10 renal,45.1 µM
same,TGI,HL-60(TB) leukemia,> 100 µM
same,TGI,NCI-H522 lung,> 100 µM
same,TGI,SNB-75 CNS,7.7 µM
same,TGI,MDA-MB-231 breast,> 100 µM
same,TGI,UACC-257 melanoma,77.8 µM
same,TGI,COLO 205 colon,> 100 µM
same,TGI,OVCAR-4 ovarian,10.8 µM
same,TGI,ACHN renal,25.5 µM
same,TGI,NCI-H460 lung,49.3 µM
same,TGI,HCC-2998 colon,> 100 µM
same,TGI,OVCAR-3 ovarian,32 µM
same,TGI,NCI-H23 lung,86.5 µM
same,TGI,SK-MEL-5 melanoma,> 100 µM
CCS(=O)(=O)c1ccc(OC)c(Nc2ncc(-c3cccc(C(C)=O)c3)o2)c1,GI50,SN12C renal,14 µM
same,TGI,SN12C renal,> 25 µM
same,GI50,786-0 renal,> 25 µM
same,TGI,786-0 renal,> 25 µM
same,GI50,SNB-19 CNS,19.9 µM
same,TGI,SNB-19 CNS,> 25 µM
same,GI50,RXF 393 renal,3.21 µM
same,TGI,RXF 393 renal,16.6 µM
same,GI50,HT29 colon,> 25 µM
same,TGI,HT29 colon,> 25 µM
same,GI50,CCRF-CEM leukemia,> 25 µM
same,TGI,CCRF-CEM leukemia,> 25 µM
same,GI50,SK-OV-3 ovarian,21.5 µM
same,TGI,SK-OV-3 ovarian,> 25 µM
same,GI50,UACC-62 melanoma,> 25 µM
same,TGI,UACC-62 melanoma,> 25 µM
same,GI50,MCF7 breast,> 25 µM
same,TGI,MCF7 breast,> 25 µM
same,GI50,SF-268 CNS,17.9 µM
same,TGI,SF-268 CNS,> 25 µM
same,GI50,PC-3 prostate,> 25 µM
same,TGI,PC-3 prostate,> 25 µM
same,GI50,HCT-116 colon,11.4 µM
same,TGI,HCT-116 colon,> 25 µM
same,GI50,CAKI-1 renal,8.71 µM
same,TGI,CAKI-1 renal,> 25 µM
same,GI50,MOLT-4 leukemia,> 25 µM
same,TGI,MOLT-4 leukemia,> 25 µM
same,GI50,HCT-15 colon,> 25 µM
same,TGI,HCT-15 colon,> 25 µM
same,GI50,NCI/ADR-RES ovarian,> 25 µM
same,TGI,NCI/ADR-RES ovarian,> 25 µM
same,GI50,EKVX NSCLC,> 25 µM
same,TGI,EKVX NSCLC,> 25 µM
same,GI50,KM12 colon,2.1 µM
same,TGI,KM12 colon,> 25 µM
same,GI50,DU-145 prostate,> 25 µM
same,TGI,DU-145 prostate,> 25 µM
same,GI50,SR leukemia,15.6 µM
same,TGI,SR leukemia,> 25 µM
same,GI50,NCI-H226 lung,2.69 µM
same,TGI,NCI-H226 lung,> 25 µM
same,GI50,HOP-62 NSCLC,> 25 µM
same,TGI,HOP-62 NSCLC,> 25 µM
same,GI50,M14 melanoma,> 25 µM
same,TGI,M14 melanoma,> 25 µM
same,GI50,RPMI-8226 leukemia,> 25 µM
same,TGI,RPMI-8226 leukemia,> 25 µM
same,GI50,IGROV1 ovarian,5.47 µM
same,TGI,IGROV1 ovarian,16.1 µM
same,GI50,SW-620 colon,> 25 µM
same,TGI,SW-620 colon,> 25 µM
same,GI50,T-47D breast,16.7 µM
same,TGI,T-47D breast,> 25 µM
same,GI50,SK-MEL-28 melanoma,> 25 µM
same,TGI,SK-MEL-28 melanoma,> 25 µM
same,GI50,MDA-MB-435,> 25 µM
same,TGI,MDA-MB-435,> 25 µM
same,GI50,SF-539 CNS,8.69 µM
same,TGI,SF-539 CNS,> 25 µM
same,GI50,OVCAR-8 ovarian,> 25 µM
same,TGI,OVCAR-8 ovarian,> 25 µM
same,GI50,BT-549 breast,20.4 µM
same,TGI,BT-549 breast,> 25 µM
same,GI50,HS 578T breast,5.88 µM
same,TGI,HS 578T breast,> 25 µM
same,GI50,A549 NSCLC,> 25 µM
same,TGI,A549 NSCLC,> 25 µM
same,GI50,K-562 leukemia,7.56 µM
same,TGI,K-562 leukemia,> 25 µM
same,GI50,UO-31 renal,5.86 µM
same,TGI,UO-31 renal,> 25 µM
same,GI50,OVCAR-5 ovarian,> 25 µM
same,TGI,OVCAR-5 ovarian,> 25 µM
same,GI50,SF-295 CNS,23.1 µM
same,TGI,SF-295 CNS,> 25 µM
same,GI50,TK-10 renal,> 25 µM
same,TGI,TK-10 renal,> 25 µM
same,GI50,HL-60(TB) leukemia,> 25 µM
same,TGI,HL-60(TB) leukemia,> 25 µM
same,GI50,NCI-H522 lung,11 µM
same,TGI,NCI-H522 lung,> 25 µM
same,GI50,LOX IMVI melanoma,10.4 µM
same,TGI,LOX IMVI melanoma,> 25 µM
same,GI50,SNB-75 CNS,2.73 µM
same,TGI,SNB-75 CNS,23 µM
same,GI50,MDA-MB-231 breast,7.73 µM
same,TGI,MDA-MB-231 breast,> 25 µM
same,GI50,UACC-257 melanoma,> 25 µM
same,TGI,UACC-257 melanoma,> 25 µM
same,GI50,COLO 205 colon,> 25 µM
same,TGI,COLO 205 colon,> 25 µM
same,GI50,SK-MEL-2 melanoma,> 25 µM
same,TGI,SK-MEL-2 melanoma,> 25 µM
same,GI50,OVCAR-4 ovarian,> 25 µM
same,TGI,OVCAR-4 ovarian,> 25 µM
same,GI50,ACHN renal,11.4 µM
same,TGI,ACHN renal,> 25 µM
same,GI50,NCI-H460 lung,> 25 µM
same,TGI,NCI-H460 lung,> 25 µM
same,GI50,HCC-2998 colon,> 25 µM
same,TGI,HCC-2998 colon,> 25 µM
same,GI50,U251 CNS,19.7 µM
same,TGI,U251 CNS,> 25 µM
same,GI50,A498 renal,0.6 µM
same,TGI,A498 renal,5.88 µM
same,GI50,OVCAR-3 ovarian,> 25 µM
same,TGI,OVCAR-3 ovarian,> 25 µM
same,GI50,NCI-H23 lung,> 25 µM
same,TGI,NCI-H23 lung,> 25 µM
same,GI50,SK-MEL-5 melanoma,> 25 µM
same,TGI,SK-MEL-5 melanoma,> 25 µM
